Reference: patent US20240226105A1 (priority 2021, published 2024)
“Also recorded” adds a separate entry of the source. Like-named read-outs stand apart in the source and are kept apart here.

Tests used:
[1] = type: physicochemical
[2] = type: physicochemical; remark: listed apart in the source
[3] = type: physicochemical; remark: listed apart in the source
[4] = cited from earlier work
[5] = type: physicochemical; remark: listed apart in the source
[6] = type: physicochemical; remark: listed apart in the source
[7] = type: physicochemical; settings: pH 4
[8] = type: physicochemical; remark: listed apart in the source

N=C1NC(O)C2C3OC4(O)O[C@@H](C(O)C2(N1)[C@@H]4O)C3(O)CO (stereo partly shown) [TTX, octahydro-12-(hydroxymethyl)-2-imino-5,9:7,10a-dimethano-10aH-(1,3)dioxocino(6,5-d)-pyrimidine-4,7,10,11,12-pentanol]
solubility of TTX in a combination of organic solvents and acids [1]: below 30 μg/ml
TTX Solubility ([1]; pH 3.7): Not soluble
TTX Solubility ([1]; pH 4.6): Not soluble
concentration at which TTX was found to be solubilized [2]: 300 µg/mL
solubility of TTX in pure organic solvents [3]: below 30 μg/ml
pKa [4]: 9.4
TTX solubility (observation) [5]: Deposits in the vial; also recorded: Partially solubilized; also recorded: Almost fully solubilized
concentration at which TTX was found to be solubilized [6]: 300 µg/mL
concentration up to which TTX was sufficiently soluble [7]: ≥ 300 µg/mL
concentration up to which TTX was soluble [8]: about 150 ug/mL
